Measured values reported in US20230167088A1, “1-PYRAZINYLPYRAZOLYL-3-OXYALKYL ACIDS AND THEIR DERIVATIVES, AND THEIR USE FOR CONTROL OF UNDESIRED PLANT GROWTH” (BAYER AKTIENGESELLSCHAFT, priority 2020, published 2023).

Tests used:
ABUTH = test: Herbicidal post-emergence action 1b (twin sowing, 1280 g/ha); format: in vivo, Abutilon theophrasti; settings: dosage 1280 g/ha, visual rating about 3 weeks after treatment
Method: (§1) [table] b) Seeds of mono- and dicotyledonous weed plants are placed in plastic pots in sandy loam soil (twin sowing with one species each of mono- or dicotyledonous weed plants per pot), covered with soil and cultivated in a greenhouse under controlled growth conditions. 2 to 3 weeks after sowing, the test plants are treated at the one-leaf stage. The compounds of the invention, formulated in the form of wettable powders (WP) or as emulsion concentrates (EC), are applied to the green parts of the plants as aqueous suspension or emulsion with addition of 0.5% additive at a water application rate equivalent to 600 litres per hectare. After the test plants have been kept in the greenhouse under optimum growth conditions for about 3 weeks, the activity of the preparations is rated visually in comparison to untreated controls. For example, 100% activity=the plants have died, 0% activity=like control plants. Tables A16 to A21 below show the effects of selected compounds of the general formula (I) according to Tables 1 and 2 on various harmful plants and at an application rate corresponding to 1280 g/ha, which were obtained by the experimental procedure mentioned above.

DIGSA [1] = test: Herbicidal pre-emergence action 2b (doubly sown, 1280 g/ha); format: in vivo, Digitaria sanguinalis; settings: doubly sown pots, dosage 1280 g/ha, visual scoring after about 3 weeks
Method in brief: (§2)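 Seeds are placed in sandy loam and covered, then the formulated compound is applied to the covering soil in water equivalent to 600 litres per hectare with 0.5% additive. Pots stay in the greenhouse under good growth conditions. Activity is rated visually as a percentage of untreated controls after about three weeks.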

POAAN [2] = test: Herbicidal post-emergence action 1b (twin sowing, 1280 g/ha); format: in vivo, Poa annua; settings: dosage 1280 g/ha, visual rating about 3 weeks after treatment
Method in brief: (§3)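 Post-emergence foliar spray on one-leaf weeds grown two species per pot in sandy loam; ~3 weeks later, visual rating from 0% (as control) to 100% (plants died).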

MATIN [3] = test: Herbicidal pre-emergence action 2b (doubly sown, 1280 g/ha); format: in vivo, Matricaria inodora; settings: doubly sown pots, dosage 1280 g/ha, visual scoring after about 3 weeks
Method in brief: as §2

MATIN [4] = test: Herbicidal post-emergence action 1b (twin sowing, 1280 g/ha); format: in vivo, Matricaria inodora; settings: dosage 1280 g/ha, visual rating about 3 weeks after treatment
Method in brief: as §3

ECHCG [5] = test: as above; format: in vivo, Echinochloa crus-galli; settings: dosage 1280 g/ha, visual rating about 3 weeks after treatment
Method: as §1

POAAN [6] = test: Herbicidal pre-emergence action 2b (doubly sown, 1280 g/ha); format: in vivo, Poa annua; settings: doubly sown pots, dosage 1280 g/ha, visual scoring after about 3 weeks
Method in brief: as §2

STEME [7] = test: as above; format: in vivo, Stellaria media; settings: doubly sown pots, dosage 1280 g/ha, visual scoring after about 3 weeks
Method in brief: as §2

AMARE [8] = test: as above; format: in vivo, Amaranthus retroflexus; settings: doubly sown pots, dosage 1280 g/ha, visual scoring after about 3 weeks
Method in brief: as §2

DIGSA [9] = test: Herbicidal post-emergence action 1b (twin sowing, 1280 g/ha); format: in vivo, Digitaria sanguinalis; settings: dosage 1280 g/ha, visual rating about 3 weeks after treatment
Method: as §1

STEME [10] = test: as above; format: in vivo, Stellaria media; settings: dosage 1280 g/ha, visual rating about 3 weeks after treatment
Method: as §1

ECHCG [11] = test: Herbicidal pre-emergence action 2b (doubly sown, 1280 g/ha); format: in vivo, Echinochloa crus-galli; settings: doubly sown pots, dosage 1280 g/ha, visual scoring after about 3 weeks
Method in brief: as §2

AMARE [12] = test: Herbicidal pre-emergence action 2a (greenhouse pots, visual scoring); format: in vivo, Amaranthus retroflexus; settings: visual scoring after about 3 weeks vs untreated controls
Method in brief: (§4)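 Visual percent rating, ~3 weeks after treatment, untreated pots as reference (0% = control-like, 100% = killed). Application: formulated compound on soil surface over seeds, 320 g/ha and/or 80 g/ha.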

DIGSA [13] = test: Herbicidal post-emergence action 1a (greenhouse pots, visual rating); format: in vivo, Digitaria sanguinalis; settings: Dosage 80 g/ha; rated visually about 3 weeks after treatment; 100% = plants have died, 0% = like control plants
Method: (§5) [table] a) Seeds of monocotyledonous and dicotyledonous weeds and crop plants are placed in sandy loam in plastic or organic plant pots, covered with soil and cultivated in a greenhouse under controlled growth conditions. 2 to 3 weeks after sowing, the test plants are treated at the one-leaf stage. The compounds of the invention, formulated in the form of wettable powders (WP) or as emulsion concentrates (EC), are then sprayed onto the green parts of the plants as aqueous suspension or emulsion with addition of 0.5% additive at a water application rate of 600 1/ha (converted). After the test plants have been kept in the greenhouse under optimum growth conditions for about 3 weeks, the activity of the preparations is rated visually in comparison to untreated controls. For example, 100% activity=the plants have died, 0% activity=like control plants. Tables A1 to A15 below show the effects of selected compounds of the general formula (I) according to Tables 1 and 2 on various harmful plants and an application rate corresponding to 320 g/ha and/or 80 g/ha, which were obtained by the experimental procedure mentioned above.

PHBPU = test: as above; format: in vivo, Pharbitis purpurea; settings: dosage 80 g/ha, visual rating about 3 weeks after treatment
Method in brief: (§6)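 Weeds and crops sown in sandy loam in greenhouse pots were sprayed post-emergence at the one-leaf stage (2–3 weeks after sowing) with WP or EC formulations plus 0.5% additive at 600 l/ha water, 320 and/or 80 g/ha. About 3 weeks later damage was rated visually against untreated controls (0% = no effect, 100% = dead).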

AMARE [14] = test: as above; format: in vivo, Amaranthus retroflexus; settings: dosage 80 g/ha, visual rating about 3 weeks after treatment
Method in brief: as §6

ALOMY [15] = test: as above; format: in vivo, Alopecurus myosuroides; settings: Dosage 80 g/ha; rated visually about 3 weeks after treatment; 100% = plants have died, 0% = like control plants
Method in brief: as §6

DIGSA [16] = test: Herbicidal pre-emergence action 2a (greenhouse pots, visual scoring); format: in vivo, Digitaria sanguinalis; settings: dosage 80 g/ha, visual scoring after about 3 weeks
Excerpt: (§7) [table] a) Seeds of monocotyledonous and dicotyledonous weed plants and crop plants are placed in plastic or organic plant pots and covered with soil. The compounds of the invention, formulated in the form of wettable powders (WP) or as emulsion concentrates (EC), are then applied onto the surface of the covering soil as aqueous suspension or emulsion with addition of 0.5% additive at a water application rate of 600 1/ha (converted). After the treatment, the pots are placed in a greenhouse and kept under good growth conditions for the trial plants. After about 3 weeks, the effect of the preparations is scored visually in comparison with untreated controls as percentages. For example, 100% activity=the plants have died, 0% activity=like control plants. Tables B1 to B15 below show the effects of selected compounds of the general formula (I) according to Tables 1 and 2 on various harmful plants and an application rate corresponding to 320 g/ha and/or 80 g/ha, which were obtained by the experimental procedure mentioned above.

VERPE [17] = test: as above; format: in vivo, Veronica persica; settings: dosage 320 g/ha, visual scoring after about 3 weeks vs untreated controls
Method in brief: as §4

VIOTR [18] = test: Herbicidal post-emergence action 1a (greenhouse pots, visual rating); format: in vivo, Viola tricolor; settings: dosage 80 g/ha, visual rating about 3 weeks after treatment
Method: as §5

VIOTR [19] = test: Herbicidal pre-emergence action 2a (greenhouse pots, visual scoring); format: in vivo, Viola tricolor; settings: dosage 320 g/ha, visual scoring after about 3 weeks vs untreated controls
Excerpt: as §7

MATIN [20] = test: as above; format: in vivo, Matricaria inodora; settings: dosage 320 g/ha, visual scoring after about 3 weeks vs untreated controls
Method in brief: as §4

VERPE [21] = test: Herbicidal post-emergence action 1a (greenhouse pots, visual rating); format: in vivo, Veronica persica; settings: dosage 80 g/ha, visual rating about 3 weeks after treatment
Method in brief: as §6

SETVI = test: Herbicidal pre-emergence action 2a (greenhouse pots, visual scoring); format: in vivo, Setaria viridis; settings: dosage 320 g/ha, visual scoring after about 3 weeks vs untreated controls
Method in brief: as §4

LOLRI = test: as above; format: in vivo, Lolium rigidum; settings: dosage 320 g/ha, visual scoring after about 3 weeks vs untreated controls
Method in brief: as §4

ALOMY [22] = test: as above; format: in vivo, Alopecurus myosuroides; settings: dosage 320 g/ha, visual scoring after about 3 weeks
Method in brief: as §4

O=C(O)COc1nn(-c2cnccn2)c(-c2ccc(F)nc2)c1Br [Example I-49, {[4-bromo-5-(6-fluoropyridin-3-yl)-1-(pyrazin-2-yl)-1H-pyrazol-3-yl]oxy}acetic acid]
100%: Post-emergence action at 1280 g/ha against ABUTH in % (ABUTH) | Pre-emergence action at 1280 g/ha against DIGSA in % (DIGSA [1]) | Post-emergence action at 1280 g/ha against POAAN in % (POAAN [2]) | Pre-emergence action at 1280 g/ha against MATIN in % (MATIN [3]) | Post-emergence action at 1280 g/ha against MATIN in % (MATIN [4]) | Post-emergence action at 1280 g/ha against ECHCG in % (ECHCG [5]) | Pre-emergence action at 1280 g/ha against POAAN in % (POAAN [6]) | Pre-emergence action at 1280 g/ha against STEME in % (STEME [7]) | Pre-emergence action at 1280 g/ha against AMARE in % (AMARE [8]) | Pre-emergence action at 1280 g/ha against ECHCG in % (ECHCG [11])
90%: Post-emergence action at 1280 g/ha against DIGSA in % (DIGSA [9]) | Post-emergence action at 1280 g/ha against STEME in % (STEME [10])

CC(Oc1nn(-c2cnccn2)c(-c2ccc(F)c(F)c2)c1Br)C(=O)O (stereo not shown) [Example I-47]
80%: Post-emergence action against DIGSA in % (DIGSA [13]) | Post-emergence action against PHBPU in % (PHBPU) | Post-emergence action against AMARE in % (AMARE [14])
90%: Pre-emergence action against AMARE in % (AMARE [12]; dosage 80 g/ha) | Post-emergence action at 1280 g/ha against ABUTH in % (ABUTH) | Post-emergence action at 1280 g/ha against MATIN in % (MATIN [4]) | Post-emergence action against ALOMY in % (ALOMY [15])
100%: Pre-emergence action at 1280 g/ha against DIGSA in % (DIGSA [1]) | Post-emergence action at 1280 g/ha against POAAN in % (POAAN [2]) | Pre-emergence action at 1280 g/ha against MATIN in % (MATIN [3]) | Post-emergence action at 1280 g/ha against ECHCG in % (ECHCG [5]) | Pre-emergence action at 1280 g/ha against POAAN in % (POAAN [6]) | Pre-emergence action at 1280 g/ha against STEME in % (STEME [7]) | Pre-emergence action at 1280 g/ha against AMARE in % (AMARE [8]) | Post-emergence action at 1280 g/ha against DIGSA in % (DIGSA [9]) | Post-emergence action at 1280 g/ha against STEME in % (STEME [10]) | Pre-emergence action against DIGSA in % (DIGSA [16]) | Pre-emergence action at 1280 g/ha against ECHCG in % (ECHCG [11])

N#CCOC(=O)COc1nn(-c2cnccn2)c(-c2ccc(F)nc2)c1Br [Example I-65]
90%: Post-emergence action at 1280 g/ha against ABUTH in % (ABUTH) | Pre-emergence action against VERPE in % (VERPE [17]) | Pre-emergence action against VIOTR in % (VIOTR [19]) | Pre-emergence action against MATIN in % (MATIN [20]) | Post-emergence action at 1280 g/ha against ECHCG in % (ECHCG [5]) | Post-emergence action at 1280 g/ha against STEME in % (STEME [10]) | Pre-emergence action against ALOMY in % (ALOMY [22])
100%: Pre-emergence action against AMARE in % (AMARE [12]; dosage 320 g/ha) | Pre-emergence action at 1280 g/ha against DIGSA in % (DIGSA [1]) | Post-emergence action at 1280 g/ha against POAAN in % (POAAN [2]) | Pre-emergence action at 1280 g/ha against MATIN in % (MATIN [3]) | Post-emergence action at 1280 g/ha against MATIN in % (MATIN [4]) | Pre-emergence action at 1280 g/ha against POAAN in % (POAAN [6]) | Pre-emergence action at 1280 g/ha against STEME in % (STEME [7]) | Pre-emergence action at 1280 g/ha against AMARE in % (AMARE [8]) | Pre-emergence action against SETVI in % (SETVI) | Post-emergence action at 1280 g/ha against DIGSA in % (DIGSA [9]) | Pre-emergence action at 1280 g/ha against ECHCG in % (ECHCG [11])
80%: Post-emergence action against VIOTR in % (VIOTR [18]) | Post-emergence action against VERPE in % (VERPE [21]) | Post-emergence action against ALOMY in % (ALOMY [15]) | Pre-emergence action against LOLRI in % (LOLRI)
